Like-named read-outs stand apart in the source and are kept apart here.
Tests used:
[1] = target: T1, CB1 receptor (Homo sapiens, UniProt P21554); format: cell-based; details: for Conclusions: Is CB1R agonist effect observed? / Experiment 1 Fold change / Experiment 2 Fold change / Experiment 3 Fold change: alone or + THCA 10 μM or + THC 10 μM
T1 construct: expressed in transfected cells

[2] = target: T1, CB1 receptor; assay: cell-based; format: cell-based; details: for Experiment 1 Fold change / Experiment 2 Fold change / Experiment 3 Fold change: Table 3 data re-expressed as fold change
[3] = AKBA 5 μM, alone or + THCA 10 μM, CBD 1 μM or THC 10 μM
[4] = AKBA 10 μM, alone or + THCA 10 μM, CBD 1 μM or THC 10 μM
[5] = AKBA 25 μM, alone or + THCA 10 μM, CBD 1 μM or THC 10 μM
[6] = AKBA 50 μM, alone or + THCA 10 μM, CBD 1 μM or THC 10 μM
[7] = AKBA 100 μM, alone or + THCA 10 μM, CBD 1 μM or THC 10 μM
[8] = CBD 1 μM without AKBA, CP55940-induced activity = 100%

T1 sequence (P21554 whole entry): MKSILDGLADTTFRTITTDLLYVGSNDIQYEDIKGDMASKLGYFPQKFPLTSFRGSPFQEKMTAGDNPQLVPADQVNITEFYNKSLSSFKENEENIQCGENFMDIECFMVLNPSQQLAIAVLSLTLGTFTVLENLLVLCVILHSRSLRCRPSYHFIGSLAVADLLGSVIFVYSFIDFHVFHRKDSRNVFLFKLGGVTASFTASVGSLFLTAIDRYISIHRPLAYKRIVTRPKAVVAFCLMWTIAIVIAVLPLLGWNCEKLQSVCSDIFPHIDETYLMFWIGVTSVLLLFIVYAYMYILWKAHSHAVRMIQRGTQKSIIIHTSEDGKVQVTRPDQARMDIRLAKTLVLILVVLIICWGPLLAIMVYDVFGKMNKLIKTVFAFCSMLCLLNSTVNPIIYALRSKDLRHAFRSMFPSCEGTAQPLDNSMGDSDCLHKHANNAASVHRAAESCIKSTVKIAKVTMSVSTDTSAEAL

Compound: CC(=O)O[C@@H]1CC[C@@]2(C)[C@@H](CC[C@]3(C)[C@@H]2C(=O)C=C2[C@@H]4[C@@H](C)[C@H](C)CC[C@]4(C)CC[C@]23C)[C@@]1(C)C(=O)O [AKBA, 3-O-acetyl-11-ketobeta-boswellic acid]
- Conclusions: Is CB1R agonist effect observed? ([1]; AKBA 5 μM): Negative (Only treatments that the mean of three consecutive independent experiments shows a positive result: CB1R activity ≥ 2.5-fold increase or ≥ 4-fold increase are considered CB1R agonists or CB1R positive allosteric modulators)
- Experiment 1 Fold change ([1]; AKBA 5 μM): 0.8 Fold change
- Experiment 2 Fold change ([1]; AKBA 5 μM): 0.8 Fold change
- Experiment 3 Fold change ([1]; AKBA 5 μM): 1.1 Fold change
- Conclusions: Is CB1R agonist effect observed? ([1]; AKBA 10 μM): Negative (Only treatments that the mean of three consecutive independent experiments shows a positive result: CB1R activity ≥ 2.5-fold increase or ≥ 4-fold increase are considered CB1R agonists or CB1R positive allosteric modulators)
- Experiment 1 Fold change ([1]; AKBA 10 μM): 1.0 Fold change
- Experiment 2 Fold change ([1]; AKBA 10 μM): 1.3 Fold change
- Experiment 3 Fold change ([1]; AKBA 10 μM): 0.9 Fold change
- Experiment 1 Fold change ([1]; AKBA 25 μM): 1.0 Fold change
- Experiment 2 Fold change ([1]; AKBA 25 μM): 1.1 Fold change
- Experiment 3 Fold change ([1]; AKBA 25 μM): 0.8 Fold change
- Conclusions: Is CB1R agonist effect observed? ([1]; AKBA 25 μM, cell 'Positive' wraps to 'Positive synergy'): Negative (Only treatments that the mean of three consecutive independent experiments shows a positive result: CB1R activity ≥ 2.5-fold increase or ≥ 4-fold increase are considered CB1R agonists or CB1R positive allosteric modulators)
- Experiment 1 Fold change ([1]; AKBA 50 μM): 1.3 Fold change
- Experiment 2 Fold change ([1]; AKBA 50 μM): 1.3 Fold change
- Experiment 3 Fold change ([1]; AKBA 50 μM): 0.7 Fold change
- Conclusions: Is CB1R agonist effect observed? ([1]; AKBA 50 μM, cell 'Positive' wraps to 'Positive synergy'): Negative (Only treatments that the mean of three consecutive independent experiments shows a positive result: CB1R activity ≥ 2.5-fold increase or ≥ 4-fold increase are considered CB1R agonists or CB1R positive allosteric modulators)
- Experiment 1 Fold change ([1]; AKBA 100 μM): 2.5 Fold change
- Experiment 2 Fold change ([1]; AKBA 100 μM): 1.1 Fold change
- Experiment 3 Fold change ([1]; AKBA 100 μM): 0.7 Fold change
- Conclusions: Is CB1R agonist effect observed? ([1]; AKBA 100 μM, cell 'Positive' wraps to 'Positive synergy'): Negative (Only treatments that the mean of three consecutive independent experiments shows a positive result: CB1R activity ≥ 2.5-fold increase or ≥ 4-fold increase are considered CB1R agonists or CB1R positive allosteric modulators)
- CB1R agonistic activity ([1]; AKBA 5-100 μM alone or + 10 μM THCA, any tested concentration, THC alone): did not show CB1R agonistic activity
- EC50 [2]: 51.7 ± 13.6 µM
- Positive allosteric CB1R effect on CP-55940 activity [2]: strong positive allosteric CB1R effect
- Conclusions: Is CB1R antagonist effect observed? ([2]; AKBA 5 μM, alone or + THCA 10 μM, CBD 1 μM or THC 10 μM, % of activity data): Negative (Only treatments that the mean of three consecutive independent experiments show a positive result (CB1R activity ≤ 50%) are considered antagonists of CB1R activity)
- activity at 5 µM ([2]; AKBA 5 μM, alone or + THCA 10 μM, CBD 1 μM or THC 10 μM, CP55940-induced activity = 100%, read-out: Experiment 1 % of activity): 130%
- activity at 5 µM ([2]; AKBA 5 μM, alone or + THCA 10 μM, CBD 1 μM or THC 10 μM, CP55940-induced activity = 100%, read-out: Experiment 2 % of activity): 123%
- activity at 5 µM ([2]; AKBA 5 μM, alone or + THCA 10 μM, CBD 1 μM or THC 10 μM, CP55940-induced activity = 100%, read-out: Experiment 3 % of activity): 103%
- Experiment 1 Fold change [2, 3]: 3.2 Fold change
- Experiment 2 Fold change [2, 3]: 3.1 Fold change
- Experiment 3 Fold change [2, 3]: 2.6 Fold change
- Conclusions: Is CB1R antagonist effect observed? ([2]; AKBA 5 μM, alone or + THCA 10 μM, CBD 1 μM or THC 10 μM, positive allosteric activity, fold change data): Negative (Only treatments that the mean of three consecutive independent experiments show a positive result (CB1R activity ≥ 4-fold change) are considered positive CB1R allosteric agonists)
- Conclusions: Is CB1R antagonist effect observed? ([2]; AKBA 10 μM, alone or + THCA 10 μM, CBD 1 μM or THC 10 μM, % of activity data): Negative (Only treatments that the mean of three consecutive independent experiments show a positive result (CB1R activity ≤ 50%) are considered antagonists of CB1R activity)
- activity at 10 µM ([2]; AKBA 10 μM, alone or + THCA 10 μM, CBD 1 μM or THC 10 μM, CP55940-induced activity = 100%, read-out: Experiment 1 % of activity): 136%
- activity at 10 µM ([2]; AKBA 10 μM, alone or + THCA 10 μM, CBD 1 μM or THC 10 μM, CP55940-induced activity = 100%, read-out: Experiment 2 % of activity): 114%
- activity at 10 µM ([2]; AKBA 10 μM, alone or + THCA 10 μM, CBD 1 μM or THC 10 μM, CP55940-induced activity = 100%, read-out: Experiment 3 % of activity): 96.4%
- Experiment 1 Fold change [2, 4]: 3.4 Fold change
- Experiment 2 Fold change [2, 4]: 2.8 Fold change
- Experiment 3 Fold change [2, 4]: 2.4 Fold change
- Conclusions: Is CB1R antagonist effect observed? ([2]; AKBA 10 μM, alone or + THCA 10 μM, CBD 1 μM or THC 10 μM, positive allosteric activity, fold change data): Negative (Only treatments that the mean of three consecutive independent experiments show a positive result (CB1R activity ≥ 4-fold change) are considered positive CB1R allosteric agonists)
- Conclusions: Is CB1R antagonist effect observed? ([2]; AKBA 25 μM, alone or + THCA 10 μM, CBD 1 μM or THC 10 μM, % of activity data): Allosterism (increase of the CB1R activity percentage (>150%) induced by CP55940)
- activity at 25 µM ([2]; AKBA 25 μM, alone or + THCA 10 μM, CBD 1 μM or THC 10 μM, CP55940-induced activity = 100%, read-out: Experiment 1 % of activity): 203%
- activity at 25 µM ([2]; AKBA 25 μM, alone or + THCA 10 μM, CBD 1 μM or THC 10 μM, CP55940-induced activity = 100%, read-out: Experiment 2 % of activity): 158%
- activity at 25 µM ([2]; AKBA 25 μM, alone or + THCA 10 μM, CBD 1 μM or THC 10 μM, CP55940-induced activity = 100%, read-out: Experiment 3 % of activity): 128%
- Experiment 1 Fold change [2, 5]: 5.1 Fold change
- Experiment 2 Fold change [2, 5]: 3.9 Fold change
- Experiment 3 Fold change [2, 5]: 3.2 Fold change
- Conclusions: Is CB1R antagonist effect observed? ([2]; AKBA 25 μM, alone or + THCA 10 μM, CBD 1 μM or THC 10 μM, positive allosteric activity, fold change data): Allosterism (An increase of the fold change ≥ 4-fold indicates CB1R positive allosteric agonistic activity)
- Conclusions: Is CB1R antagonist effect observed? ([2]; AKBA 50 μM, alone or + THCA 10 μM, CBD 1 μM or THC 10 μM, % of activity data): Allosterism (increase of the CB1R activity percentage (>150%) induced by CP55940)
- activity at 50 µM ([2]; AKBA 50 μM, alone or + THCA 10 μM, CBD 1 μM or THC 10 μM, CP55940-induced activity = 100%, read-out: Experiment 1 % of activity): 500%
- activity at 50 µM ([2]; AKBA 50 μM, alone or + THCA 10 μM, CBD 1 μM or THC 10 μM, CP55940-induced activity = 100%, read-out: Experiment 2 % of activity): 537%
- activity at 50 µM ([2]; AKBA 50 μM, alone or + THCA 10 μM, CBD 1 μM or THC 10 μM, CP55940-induced activity = 100%, read-out: Experiment 3 % of activity): 474%
- Experiment 1 Fold change [2, 6]: 12.5 Fold change
- Experiment 2 Fold change [2, 6]: 13.4 Fold change
- Experiment 3 Fold change [2, 6]: 11.9 Fold change
- Conclusions: Is CB1R antagonist effect observed? ([2]; AKBA 50 μM, alone or + THCA 10 μM, CBD 1 μM or THC 10 μM, positive allosteric activity, fold change data): Allosterism (An increase of the fold change ≥ 4-fold indicates CB1R positive allosteric agonistic activity)
- Conclusions: Is CB1R antagonist effect observed? ([2]; AKBA 100 μM, alone or + THCA 10 μM, CBD 1 μM or THC 10 μM, % of activity data): Allosterism (increase of the CB1R activity percentage (>150%) induced by CP55940)
- activity at 100 µM ([2]; AKBA 100 μM, alone or + THCA 10 μM, CBD 1 μM or THC 10 μM, CP55940-induced activity = 100%, read-out: Experiment 2 % of activity): 674%
- activity at 100 µM ([2]; AKBA 100 μM, alone or + THCA 10 μM, CBD 1 μM or THC 10 μM, CP55940-induced activity = 100%, read-out: Experiment 3 % of activity): 485%
- Experiment 1 Fold change [2, 7]: 25.6 Fold change
- Experiment 2 Fold change [2, 7]: 16.8 Fold change
- Experiment 3 Fold change [2, 7]: 12.1 Fold change
- Conclusions: Is CB1R antagonist effect observed? ([2]; AKBA 100 μM, alone or + THCA 10 μM, CBD 1 μM or THC 10 μM, positive allosteric activity, fold change data): Allosterism (An increase of the fold change ≥ 4-fold indicates CB1R positive allosteric agonistic activity)
- CB1R antagonistic effect ([2]; AKBA 5-100 μM, CP55940-stimulated cells): did not show an antagonistic effect

Compound: C=C(C)[C@@H]1CCC(C)=C[C@H]1c1c(O)cc(CCCCC)cc1O [CBD, cannabidiol, reference compound]
- Effect of cannabinoid on AKBA CB1R positive allosteric activity ([2]; AKBA 50 and 100 μM, THCA 10 μM or CBD 1 μM): almost abolished
- Conclusions: Is CB1R antagonist effect observed? ([2]; CBD 1 μM without AKBA, % of activity data): + (A reduction of the percentage below 50% indicates CB1R antagonistic activity)
- Experiment 1 % of activity [2, 8]: 66.2%
- Experiment 2 % of activity [2, 8]: 70.7%
- Experiment 3 % of activity [2, 8]: 69.5%
- Experiment 1 Fold change ([2]; CBD 1 μM without AKBA): 1.7 Fold change
- Experiment 2 Fold change ([2]; CBD 1 μM without AKBA): 1.8 Fold change
- Experiment 3 Fold change ([2]; CBD 1 μM without AKBA): 1.7 Fold change
- Conclusions: Is CB1R antagonist effect observed? ([2]; CBD 1 μM without AKBA, positive allosteric activity, fold change data): Negative (Only treatments that the mean of three consecutive independent experiments show a positive result (CB1R activity ≥ 4-fold change) are considered positive CB1R allosteric agonists)
